Patent US20190202836A1, “SELECTIVE DUAL INHIBITORS OF PI3 DELTA AND GAMMA PROTEIN KINASES” (Rhizen Pharmaceuticals SA, priority 2014, published 2019)

Columns and labels:
[1] = system: mouse whole blood B-cell proliferation (CD45R); assay: Assay 6B: Inhibition of LPS induced CD45R in mouse whole blood; format: cell-based; conditions: diluted mouse whole blood, 72 hours, read-out: EC50, inhibition of LPS-induced mouse whole blood B-cell proliferation (CD45R expression)
Procedure: The effect of Compound A1 on modulating B-cell receptor (BCR)-activated proliferation of human or mouse B-lymphocytes was determined. CD19 is a protein present on B cells from the earliest recognizable B-lineage cells during development to B-cell blasts but is however lost on maturation to plasma cells. LPS is an endotoxin and a major component of environmental microbes with a potent mitogenic activity on B-cells via the […].
Briefly, diluted mouse whole blood was treated with of DMSO or desired concentrations of Compound A1. Samples were induced with LPS 15 minutes after compound addition, and incubated for 72 hours at 37° C. and 5% CO2. Cells positive for CD45 and CD45R were determined by flow cytometry. Data are expressed as percentage CD45R positive cells in the total population.

PI3Kγ = PI3Kγ (Homo sapiens, UniProt P48736); assay: Assay 4: fMLP induced CD63 expression in basophils from human whole blood; format: cell-based; parameters: endogenous in cells; host or cells: basophils in human whole blood; conditions: n=1, read-out: IC50 for fMLP (PI3K γ), CD63 positive basophils
Procedure: PI3K δ and γ signaling in basophils manifested by an alteration of anti-FcεR1 or fMLP induced CD63 expression is a useful pharmacodynamic marker determined using the Flow2CAST® kit (Buhlmann Laboratories, Switzerland). The test procedure involves the following steps: • Mix the anti-coagulated blood sample by inverting the venipuncture tube several times; • Prepare fresh and pyrogen-free 3.5 ml polypropylene or polystyrene tubes suitable for Flow Cytometry measurements; • Add 49 μl of patient's whole blood to each tube; • Add 1 μl of 10% DMSO (background) or test compound (10% DMSO) to the assigned tubes and mix gently. Incubate at room temperature for 15 minutes; • Pipet 50 μl of the Stimulation buffer (background) or anti-FcεRI Ab or fMLP to each tube; • Add 100 μl of Stimulation Buffer to each tube; • Mix gently. Add 20 μl Staining Reagent (1:1 mix of FITC-CD63 and PE-CCR3) to each tube; • Mix gently, cover the tubes and incubate for 15 minutes at 37° C. in a water bath. […]
Percent CD63 positive cells within the gated basophil population were determined in different treatment groups and normalized to vehicle control.

Female Wistar rats = assay: Assay 11: Collagen induced arthritis (CIA) in Wistar rats; format: in vivo; conditions: rat CIA, dosed therapeutically, 10 mg/kg/QD
[2] = system: T-lymphoma (MOLT-4, Jurkat, CCRF-CEM, Hut-78 and HuT-102) cells; assay: Assay 2: In vitro cell proliferation assay in leukemic cell lines (MTT); format: cell-based
Procedure: Growth inhibition assays were carried out using 10% FBS supplemented media. Cells were seeded at a concentration of 5000-20,000 cells/well in a 96-well plate. Test compounds at a concentration ranging from 0.01 to 10000 nM were added after 24 hours. Growth was assessed using the 3-[4,5-dimethylthiazol-2-yl]-2,5-diphenyltetrazolium bromide (MTT) dye reduction test at 0 hour (prior to the addition of the test compound) and 72 hours after the addition of test compound. Absorbance was read on a Fluostar Optima (BMG Labtech, Germany) at a wavelength of 450 nm. Data were analysed using GraphPad Prism and percent inhibition due to the test compound compared to the control was calculated accordingly.

IL-2 = assay: Assay 6A: Cytokine assay in human PBMC, PHA induced IL-2; format: cell-based; conditions: PHA 20 μg/ml, 24 hours, 2-3 independent experiments, read-out: EC50, antigen-induced IL-2
Procedure: The objective of this study was to assess the inhibitory potential of Compound A1 on antigen-induced cytokine release in human PBMC
• Heparinized human whole blood was diluted 1:1 with PBS, over laid on leukocyte separation medium and centrifuged at 400 g for 40 minutes. • Buffy layer was removed and washed with PBS • 0.15*10^6 of PBMCs were plated in 100 μl per well in RPMI media and incubated for 2 h. • 50 μl of 3× of the compound dilution in media was added and incubated for 15 min. • TNFα—induced with 50 μl of LPS in RPMI such that final concentration was 1 μg/ml. Supernatant was collected at 6 hours. • IL-2-induced with 50 μl of PHA in RPMI such that final concentration was 20 μg/ml. Supernatant was collected at 24 hours. • IL-4-induced with 50 μl of PHA in RPMI such that final concentration was 20 μg/ml.
EC50 values were calculated from 2-3 independent experiments.

[3] = Metabolic stability in human liver microsomes; format: in vitro ADME; conditions: 1 μM test item, 60 minutes, 37° C., NADPH
Procedure: Metabolic stability studies were conducted on Compounds A, A1, and A2 as well as Example 128 of WO 2012/151525 using mouse, rat, dog, monkey, and human liver microsomes. The protocol for the studies with mouse, rat, and human liver microsomes (all from BD Gentest, USA) is provided below. 0.4 mg protein was preincubated with 2 mM NADPH (cofactor) in phosphate buffer (pH-7.4) for 15 minutes at 37° C. and then added with 1 μM test item and incubated further for 60 minutes in triplicate. The reaction mixture was terminated with methanol containing an internal standard and centrifuged further to analyze the test item remaining in the supernatant by LC-MS/MS. The percent parent compound remaining was calculated in comparison with similar samples terminated at 0 minutes.

Chain of PI3Kγ (P48736 whole entry): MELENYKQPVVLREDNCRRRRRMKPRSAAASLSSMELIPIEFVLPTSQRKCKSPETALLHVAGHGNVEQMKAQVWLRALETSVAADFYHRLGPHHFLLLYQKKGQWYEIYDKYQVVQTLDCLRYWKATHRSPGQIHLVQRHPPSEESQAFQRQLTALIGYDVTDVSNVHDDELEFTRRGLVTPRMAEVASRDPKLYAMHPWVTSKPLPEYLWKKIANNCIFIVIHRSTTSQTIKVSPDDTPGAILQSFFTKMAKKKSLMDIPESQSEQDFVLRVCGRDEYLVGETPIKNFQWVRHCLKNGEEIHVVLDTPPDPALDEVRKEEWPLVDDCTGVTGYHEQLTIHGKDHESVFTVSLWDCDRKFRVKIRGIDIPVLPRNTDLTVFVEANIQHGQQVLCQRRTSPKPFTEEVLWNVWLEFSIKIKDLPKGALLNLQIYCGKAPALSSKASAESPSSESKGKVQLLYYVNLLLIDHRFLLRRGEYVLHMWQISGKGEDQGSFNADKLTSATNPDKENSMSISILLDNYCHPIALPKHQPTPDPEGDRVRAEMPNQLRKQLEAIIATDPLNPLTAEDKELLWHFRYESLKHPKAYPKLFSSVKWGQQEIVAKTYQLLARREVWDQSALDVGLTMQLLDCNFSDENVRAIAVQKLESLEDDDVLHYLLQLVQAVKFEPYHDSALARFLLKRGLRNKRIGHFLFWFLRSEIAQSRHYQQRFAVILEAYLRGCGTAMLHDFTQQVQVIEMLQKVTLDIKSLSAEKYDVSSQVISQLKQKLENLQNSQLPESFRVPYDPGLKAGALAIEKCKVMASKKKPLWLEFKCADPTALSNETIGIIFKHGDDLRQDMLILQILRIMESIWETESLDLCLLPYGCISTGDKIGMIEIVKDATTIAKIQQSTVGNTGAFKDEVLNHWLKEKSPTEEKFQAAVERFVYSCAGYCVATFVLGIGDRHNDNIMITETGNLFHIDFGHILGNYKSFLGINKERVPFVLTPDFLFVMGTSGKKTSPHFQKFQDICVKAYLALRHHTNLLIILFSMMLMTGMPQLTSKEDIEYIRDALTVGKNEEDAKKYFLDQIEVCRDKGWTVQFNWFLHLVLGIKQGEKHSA

IC50 (PI3Kγ): < 70 nM | GI50 ([2]; MOLT-4, Jurkat, CCRF-CEM, Hut-78 and HuT-102, MTT, 72 hours, range over the cell lines, read-out: GI50, reduction in T-lymphoma cell viability): 2.5 to 12.8 µM | EC50 (IL-2): 9.5 nM | Metabolic stability in liver microsomes (percent parent compound remaining), Human [3]: 95.7%
Compound: COc1ccc(-c2nn([C@@H](C)c3oc4cccc(F)c4c(=O)c3-c3cccc(F)c3)c3ncnc(N)c23)cc1NS(C)(=O)=O [Compound A1, (S)—N-(5-(4-amino-1-(1-(5-fluoro-3-(3-fluorophenyl)-4-oxo-4H-chromen-2-yl)ethyl)-1H-pyrazolo[3,4-d]pyrimidin-3-yl)-2-methoxyphenyl)methanesulfonamide]
EC50 [1]: 128 nM | inhibition of cartilage (histopathology of all the hind and fore paws) (Female Wistar rats): 46.51% | inhibition of inflammation (histopathology of all the hind and fore paws) (Female Wistar rats): 58.3% | inhibition of pannus (histopathology of all the hind and fore paws) (Female Wistar rats): 49.18% | reducing ankle diameter (Female Wistar rats): significant efficacy | reducing the average paw volumes of both the hind paws (Female Wistar rats): significant efficacy | reduction of the clinical score (Female Wistar rats; prophylactic and therapeutic paws): significant efficacy | cytotoxicity over the 72 hour incubation period ([2]; T-lymphoma cell lines, 72 hour incubation): did not display any apparent cytotoxicity
